Results reported in patent publication US8497298B2, “Use of benzo-fused heterocycle sulfamide derivatives for lowering lipids and lowering blood glucose levels” (Janssen Pharmaceutica NV, priority 2005, dated 2013).

System: db/db mice
Assay: Female db/db Mouse Assay, Study A: single dose part and dose response part (Example 14)
Type: in vivo
Excerpt: 0.5% Hydroxypropyl Methylcellulose (Methocel) used as vehicle/control.
Db/db mice are susceptible to Type 2 diabetes. […] All of the mice were quarantined for a period of one week before transfer to the animal procedure room. A drop of blood (about 2 microliters) was collected by tail puncture and glucose concentration was detected with a glucometer (OneTouch UltraSmart, Lifescan, Milpitas, Calif.). […] Animals were separated and single housed at least three days prior to the drug treatments to allow acclimation to the new surroundings.
In the second, dose response part of Study A, 48 mice were allocated into 4 treatment groups of 12 mice each.
The dosing volume was 5 mL/kg body weight (0.2 mL for 40 gram mice). The mice were fed ad lib throughout the study. A necropsy was completed 18 hours after last dosing.
Blood glucose levels were measured from blood collected through tail puncture using a glucometer at 1000 hour. The mice were anaesthetized with sodium pentobarbital (1 ml/kg, intraperitoneal [i.p.] injection, SleepAway, Fort Dodge, Iowa) and blood was drawn via cardiac puncture using 1 mL syringe and collected into heparinized tubes. White adipose tissues (WAT) (retroperitoneal and inguinal fat pads), brown adipose tissure (BAT) and skeletal muscles (gastrocnemius and soleus muscle) and stomach contents were dissected and weighed. Plasma samples were obtained by centrifuging whole blood at 2000˜3000 g for 10˜20 minutes at 4° C. and stored at −20° C. for further measurement of insulin, HDL, LDL, total cholesterol and triglyceride.
Plasma insulin concentrations were measured by in both studies using the appropriate rat/mouse insulin enzyme-linked immunosorbent assay (ELISA) kit (EZRMI-13K, LINCO Research, St. Charles, Mo.). Blood samples were diluted 1:4 in charcoal stripped mouse serum that was included in the ELISA kit. The rest of the procedure followed the manufacturers instruction. The total fluorescence was detected using an Orion 1 Microplate Luminometer (Berthold Detection Systems, Pforzheim, Germany).
According to manufacturers protocol, cholesterol measurement was an enzymatic method utilizing cholesterol esterase and cholesterol oxidase conversion followed by a Trinder endpoint; Elimination/catalase method was used for HDL measurement; an enzymatic method with a Trinder endpoint was used for triglyceride measurement.
Data from both parts of the Study (single dose and dose response) was analyzed using the standard two-tailed Student's t-test and are expressed below as means and standard errors.

[1] = dose response part, 10 mg/kg, plasma
[2] = dose response part, 30 mg/kg, plasma
[3] = dose response part, 100 mg/kg, plasma
[4] = single dose part, Compound #8 300 mg/kg
[5] = single dose part, Compound #8 300 mg/kg oral once daily 10 days
[6] = single dose part, Compound #8 300 mg/kg, plasma

**Q.** With `NS(=O)(=O)NC[C@H]1COc2cc(Cl)ccc2O1` [Compound #8, (2S)-(−)-N-(6-Chloro-2,3-dihydro-benzo[1,4]dioxin-2-ylmethyl)-sulfamide] as the molecule, how does the “total cholesterol concentrations elevated relative to vehicle” value (Compound #8, dose not given) read?
**A.** 18.7%

**Q.** What about the “Brown Adipose Tissue” value (dose response part, 10 mg/kg) of the same molecule?
**A.** 0.23 ± 0.01 g

**Q.** And the Inguinal fat (dose response part, 10 mg/kg)?
**A.** 2.15 ± 0.11 g

**Q.** What about the Insulin (dose response part, 10 mg/kg) of the same molecule?
**A.** 11.9 ± 2.5 ng/mL

**Q.** And the Muscle (dose response part, 10 mg/kg)?
**A.** 0.140 ± 0.004 g

**Q.** What about the “Ratio (Triglyceride to HDL)” value (dose response part, 10 mg/kg) of the same molecule?
**A.** 3.5 ± 0.3

**Q.** What about the “Ratio (fat/muscle)” value (dose response part, 10 mg/kg) of the same molecule?
**A.** 25.9 ± 0.8

**Q.** What about the Retroperitoneal fat (dose response part, 10 mg/kg) of the same molecule?
**A.** 1.47 ± 0.04 g

**Q.** What about the Glucose (dose response part, 10 mg/kg oral once daily 10 days) of the same molecule?
**A.** 420 ± 10 mg/dL

**Q.** What about the Cholesterol [1] of the same molecule?
**A.** 92 ± 3 mg/dL

**Q.** And the HDL [1]?
**A.** 47.1 ± 1.5 mg/dL

**Q.** What about the Triglyceride [1] of the same molecule?
**A.** 166 ± 13 mg/dL

**Q.** What about the “Brown Adipose Tissue” value (dose response part, 30 mg/kg) of the same molecule?
**A.** 0.22 ± 0.01 g

**Q.** What about the Inguinal fat (dose response part, 30 mg/kg) of the same molecule?
**A.** 1.97 ± 0.07 g

**Q.** And the Insulin (dose response part, 30 mg/kg)?
**A.** 10.8 ± 2.9 ng/mL

**Q.** And the Muscle (dose response part, 30 mg/kg)?
**A.** 0.141 ± 0.003 g

**Q.** And the “Ratio (Triglyceride to HDL)” value (dose response part, 30 mg/kg)?
**A.** 4.1 ± 0.3

**Q.** And the “Ratio (fat/muscle)” value (dose response part, 30 mg/kg)?
**A.** 24.5 ± 0.5

**Q.** And the Retroperitoneal fat (dose response part, 30 mg/kg)?
**A.** 1.49 ± 0.07 g

**Q.** What about the Glucose (dose response part, 30 mg/kg oral once daily 10 days) of the same molecule?
**A.** 439 ± 13 mg/dL

**Q.** And the Cholesterol [2]?
**A.** 95 ± 2 mg/dL

**Q.** What about the HDL [2] of the same molecule?
**A.** 49.2 ± 1.7 mg/dL

**Q.** What about the Triglyceride [2] of the same molecule?
**A.** 202 ± 18 mg/dL

**Q.** And the “Brown Adipose Tissue” value (dose response part, 100 mg/kg)?
**A.** 0.24 ± 0.00 g

**Q.** And the Inguinal fat (dose response part, 100 mg/kg)?
**A.** 2.05 ± 0.09 g

**Q.** What about the Insulin (dose response part, 100 mg/kg) of the same molecule?
**A.** 3.9 ± 1.4 ng/mL

**Q.** What about the Muscle (dose response part, 100 mg/kg) of the same molecule?
**A.** 0.140 ± 0.007 g

**Q.** What about the “Ratio (Triglyceride to HDL)” value (dose response part, 100 mg/kg) of the same molecule?
**A.** 3.3 ± 0.3

**Q.** And the “Ratio (fat/muscle)” value (dose response part, 100 mg/kg)?
**A.** 26.3 ± 1.0

**Q.** And the Retroperitoneal fat (dose response part, 100 mg/kg)?
**A.** 1.55 ± 0.11 g

**Q.** And the “hyperinsulinemia decreased compared to vehicle treated mice” value (dose response part, 100 mg/kg)?
**A.** 63.5%

**Q.** What about the Glucose (dose response part, 100 mg/kg oral once daily 10 days) of the same molecule?
**A.** 394 ± 17 mg/dL

**Q.** What about the stomach content (dose response part, 100 mg/kg, control 0.35±0.03 g, p<0.05) of the same molecule?
**A.** 0.51 ± 0.04 g

**Q.** And the Cholesterol [3]?
**A.** 102 ± 3 mg/dL

**Q.** And the HDL [3]?
**A.** 51.7 ± 1.7 mg/dL

**Q.** What about the Triglyceride [3] of the same molecule?
**A.** 169 ± 10 mg/dL

**Q.** And the “food intake and body weight” value (dose response part, 10, 30 and 100 mg/kg groups)?
**A.** no differences

**Q.** What about the “Glucose levels reduced compared to vehicle treated mice” value (single dose part, 300 mg/kg) of the same molecule?
**A.** 50%

**Q.** What about the “HDL elevated compared to vehicle” value (single dose part, 300 mg/kg) of the same molecule?
**A.** 22.8%

**Q.** And the “plasma triglyceride decreased compared to vehicle” value (single dose part, 300 mg/kg)?
**A.** 39.4%

**Q.** And the “ratio of triglyceride to HDL reduced” value (single dose part, 300 mg/kg)?
**A.** 50.2%

**Q.** What about the “stomach content weights versus vehicle at the end of the experiment” value (single dose part, 300 mg/kg) of the same molecule?
**A.** two times greater

**Q.** And the “Brown Adipose Tissue” value [4]?
**A.** 0.25 ± 0.01 g

**Q.** What about the “Final weight Body weight” value [4] of the same molecule?
**A.** 39 ± 0.9 g

**Q.** What about the “Final weight Stomach contents” value [4] of the same molecule?
**A.** 0.52 ± 0.07 g

**Q.** What about the Inguinal fat [4] of the same molecule?
**A.** 2.28 ± 0.11 g

**Q.** What about the Muscle [4] of the same molecule?
**A.** 0.154 ± 0.00 g

**Q.** And the Retroperitoneal fat [4]?
**A.** 1.31 ± 0.07 g

**Q.** And the “Total chow consumption Day 1-3” value [4]?
**A.** 14 ± 0.9 g

**Q.** What about the “Total chow consumption Day 4-6” value [4] of the same molecule?
**A.** 14.9 ± 1.1 g

**Q.** What about the “Total chow consumption Day 7-9” value [4] of the same molecule?
**A.** 16 ± 0.6 g

**Q.** What about the Glucose [5] of the same molecule?
**A.** 210 ± 27 mg/dL

**Q.** And the Insulin [5]?
**A.** 16.0 ± 2.5 ng/mL

**Q.** What about the Cholesterol [6] of the same molecule?
**A.** 108 ± 3 mg/dL

**Q.** What about the HDL [6] of the same molecule?
**A.** 55.9 ± 1.2 mg/dL

**Q.** And the LDL [6]?
**A.** 3.4 ± 0.2 mg/dL

**Q.** And the “Ratio (Triglyceride to HDL)” value [6]?
**A.** 1.8 ± 0.3

**Q.** What about the Triglyceride [6] of the same molecule?
**A.** 98 ± 13 mg/dL

**Q.** What about the “Ratio (fat/muscle)” value (single dose part, Compound #8 300 mg/kg, total inguinal and retroperitoneal fat/muscle weight) of the same molecule?
**A.** 23.4 ± 0.9
